Reference: patent publication US20200048267A1, “OGA INHIBITOR COMPOUNDS” (Janssen Pharmaceutica NV, priority 2017, published 2020)

What was measured:
[1] = target: T1, recombinant human Meningioma Expressed Antigen 5 (MGEA5), also referred to as O-GlcNAcase (OGA) (Homo sapiens, UniProt O60502); test: OGA biochemical assay (inhibition of FM-GlcNAc hydrolysis, fluorescence); conditions: for Emax: read-out: ENZYMATIC Emax (%); for IC50: read-out: ENZYMATIC hOGA, pIC50 (converted)
T1 construct: Full length OGA enzyme was purchased at OriGene (cat # TP322411); purchased OriGene TP322411
T1 sequence (O60502 1-916): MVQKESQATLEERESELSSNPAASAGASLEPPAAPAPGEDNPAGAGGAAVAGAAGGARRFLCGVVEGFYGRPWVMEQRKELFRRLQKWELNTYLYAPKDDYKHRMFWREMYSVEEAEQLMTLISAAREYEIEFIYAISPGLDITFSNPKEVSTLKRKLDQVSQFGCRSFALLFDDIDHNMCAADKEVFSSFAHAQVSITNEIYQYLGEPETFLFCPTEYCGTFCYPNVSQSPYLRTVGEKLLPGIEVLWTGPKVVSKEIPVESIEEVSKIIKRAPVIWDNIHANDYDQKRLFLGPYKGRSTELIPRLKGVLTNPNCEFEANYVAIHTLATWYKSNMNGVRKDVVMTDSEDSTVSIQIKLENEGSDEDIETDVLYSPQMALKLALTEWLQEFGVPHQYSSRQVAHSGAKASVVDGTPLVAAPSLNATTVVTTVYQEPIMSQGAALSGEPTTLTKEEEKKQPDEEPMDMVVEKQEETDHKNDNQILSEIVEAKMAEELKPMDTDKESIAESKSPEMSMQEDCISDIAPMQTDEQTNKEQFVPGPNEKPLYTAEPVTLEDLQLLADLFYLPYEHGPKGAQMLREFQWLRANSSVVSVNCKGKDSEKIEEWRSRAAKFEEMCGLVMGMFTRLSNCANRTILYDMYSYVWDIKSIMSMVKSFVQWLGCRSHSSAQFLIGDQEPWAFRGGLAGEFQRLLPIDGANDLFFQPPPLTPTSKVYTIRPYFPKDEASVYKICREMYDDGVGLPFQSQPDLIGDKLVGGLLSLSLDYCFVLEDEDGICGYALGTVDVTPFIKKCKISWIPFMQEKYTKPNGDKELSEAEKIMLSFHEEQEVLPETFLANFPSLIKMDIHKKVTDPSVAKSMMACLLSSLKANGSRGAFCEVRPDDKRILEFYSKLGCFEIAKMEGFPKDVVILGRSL
Description: The assay is based on the inhibition of the hydrolysis of fluorescein mono-β-D-N-Acetyl-Glucosamine (FM-GlcNAc) (Mariappa et al. 2015, Biochem J 470:255) by the recombinant human Meningioma Expressed Antigen 5 (MGEA5), also referred to as O-GlcNAcase (OGA). The hydrolysis FM-GlcNAc (Marker Gene technologies, cat # M1485) results in the formation of B-D-N-glucosamineacetate and fluorescein. The fluorescence of the latter can be measured at excitation wavelength 485 nm and emission wavelength 538 nm. An increase in enzyme activity results in an increase in fluorescence signal. Full length OGA enzyme was purchased at OriGene (cat # TP322411). The enzyme was stored in 25 mM Tris.HCl, pH 7.3, 100 mM glycine, 10% glycerol at −20° C. Thiamet G and GlcNAcStatin were tested as reference compounds (Yuzwa et al. 2008 Nature Chemical Biology 4:483; Yuzwa et al. 2012 Nature Chemical Biology 8:393). The assay was performed in 200 mM Citrate/phosphate buffer supplemented with 0.005% Tween-20. 35.6 g Na2HPO4 2 H2O (Sigma, # C0759) were dissolved in 1 L water to obtain a 200 mM solution. 19.2 g citric acid (Merck, # 1.06580) was dissolved in 1 L water to obtain a 100 mM solution. pH of the sodium phosphate solution was adjusted with the citric acid solution to 7.2. The buffer to stop the reaction consists of a 500 mM Carbonate buffer, pH 11.0. 734 mg FM-GlcNAc were dissolved in 5.48 mL DMSO to obtain a 250 mM solution and was stored at −20° C. OGA was used at 2 nM concentration and FM-GlcNAc at a 100 uM final concentration. Dilutions were prepared in assay buffer.
50 nl of a compound dissolved in DMSO was dispensed on Black Proxiplate™ 384 Plus Assay plates (Perkin Elmer, #6008269) and 3 μl fl-OGA enzyme mix added subsequently. Plates were pre-incubated for 60 min at room temperature and then 2 μl FM-GlcNAc substrate mix added. […] Plates were briefly centrifuged for 1 min at 1000rpm and incubate at room temperature for 6 h. To stop the reaction 5 μl STOP buffer were added and plates centrifuge again 1 min at 1000 rpm.
Fluorescence was quantified in the Thermo Scientific Fluoroskan Ascent or the PerkinElmer EnVision with excitation wavelength 485 nm and emission wavelength 538 nm.
For analysis a best-fit curve is fitted by a minimum sum of squares method. From this an IC50 value and Hill coefficient was obtained. High control (no inhibitor) and low control (saturating concentrations of standard inhibitor) were used to define the minimum and maximum values.

[2] = target: T2, OGA (Homo sapiens, UniProt O60502); test: OGA cellular assay (ICC detection of O-GlcNAcylated proteins in HEK293 cells inducible for P301L mutant human Tau); type: cell-based; conditions: 6 hours incubation; for EC50: read-out: CELLULAR hOGA, pEC50 (converted)
T2 construct: HEK293 cells inducible for P301L mutant human Tau (isoform 2N4R) were established at Janssen; endogenous in cells; host or cells: HEK293 cells inducible for P301L mutant human Tau (2N4R)
T2 sequence (O60502 1-916): T1 sequence (O60502 1-916)
Protocol: HEK293 cells inducible for P301L mutant human Tau (isoform 2N4R) were established at Janssen. Thiamet-G was used for both plate validation (high control) and as reference compound (reference EC50 assay validation). OGA inhibition is evaluated through the immunocytochemical (ICC) detection of O-GlcNAcylated proteins by the use of a monoclonal antibody (CTD110.6; Cell Signaling, #9875) detecting O-GlcNAcylated residues as previously described (Dorfmueller et al. 2010 Chemistry & biology, 17:1250). Inhibition of OGA will result in an increase of O-GlcNAcylated protein levels resulting in an increased signal in the experiment. Cell nuclei are stained with Hoechst to give a cell culture quality control and a rough estimate of immediate compounds toxicity, if any. ICC pictures are imaged with a Perkin Elmer Opera Phenix plate microscope and quantified with the provided software Perkin Elmer Harmony 4.1.
Cells were propagated in DMEM high Glucose (Sigma, #D5796) following standard procedures. 2 days before the cell assay cells are split, counted and seeded in Poly-D-Lysine (PDL) coated 96-wells (Greiner, #655946) plate at a cell density of 12,000 cells per cm^2 (4,000 cells per well) in 100 µl of Assay Medium (Low Glucose medium is used to reduce basal levels of GlcNAcylation) (Park et al. 2014 The Journal of biological chemistry 289:13519). At the day of compound test medium from assay plates was removed and replenished with 90 μl of fresh Assay Medium. 10 μl of compounds at a 10 fold final concentration were added to the wells. Plates were centrifuged shortly before incubation in the cell incubator for 6 hours. DMSO concentration was set to 0.2%. Medium is discarded by applying vacuum. For staining of cells medium was removed and cells washed once with 100 μl D-PBS (Sigma, #D8537). From next step onwards unless other stated assay volume was always 50 μl and incubation was performed without agitation and at room temperature. Cells were fixed in 50 μl of a 4% paraformaldehyde (PFA, Alpha aesar, # 043368) PBS solution for 15 minutes at room temperature. […] Before analysis samples were washed 2 times manually for 5 minutes in ICC base buffer.
Imaging is performed using Perkin Elmer Phenix Opera using a water 20× objective and recording 9 fields per well. Intensity readout at 488 nm is used as a measure of O-GlcNAcylation level of total proteins in wells. To assess potential toxicity of compounds nuclei were counted using the Hoechst staining. IC50-values are calculated using parametric non-linear regression model fitting. As a maximum inhibition Thiamet G at a 200 uM concentration is present on each plate. In addition, a concentration response of Thiamet G is calculated on each plate.

Row | Structure (SMILES) | Emax [1] | IC50 [1] | Emax [2] | EC50 [2] | ENZYMATIC hOGA; pIC50 [1]
1 | Cc1cc(N2CCC3(CCN(Cc4ccc5nccnc5c4)C3)C2)nc(C)n1 (stereo not shown) [Product 22] | 96% | 275 nM | 12% | > 1000 nM | –
2 | CNc1cncc(N2CCC3(CCN(Cc4cnc(NC(C)=O)s4)C3)C2)n1 (stereo not shown) [Product 26] | 101% | 61.7 nM | 25.1% | > 1000 nM | –
3 | CC(=O)Nc1ncc(CN2CCC3(CCN(c4cc(C)nc(C(F)(F)F)c4)C3)C2)s1 (stereo not shown) [Product 28] | 101% | 19.1 nM | 73.4% | 380 nM | –
4 | Cc1cc(N2CCC3(CCN(C(C)c4ccc5sc(C)nc5c4)C3)C2)cc(C)n1 (stereo not shown) [Product 29] | 101% | 18.2 nM | 74.1% | 380 nM | –
5 | Cc1cc(N2CCC3(CCN(Cc4nc5ccccc5[nH]4)C3)C2)nc(C)n1 (stereo not shown) [Product 30] | 100% | 324 nM | 7.7% | > 1000 nM | –
6 | Cc1cc(N2CCC3(CCN(Cc4ccc5sc(C)nc5c4)C3)C2)nc(C)n1 (stereo not shown) [Product 32] | 102% | 51.3 nM | 26.3% | > 1000 nM | –
7 | Cc1cc(N2CCC3(CCN(Cc4ccc5sc(C)nc5c4)C3)C2)cc(C(F)(F)F)n1 (stereo not shown) [Product 33] | 96.2% | 69.2 nM | 6.9% | > 1000 nM | –
8 | CC(=O)Nc1ncc(CN2CCC3(CCN(c4cc(C)ncc4C(F)(F)F)C3)C2)s1 (stereo not shown) [Product 34] | 102% | – | 85.3% | 148 nM | 7.44
9 | Cc1cc(N2CCC3(CCN(C(C)c4ccc5scnc5c4)C3)C2)cc(C)n1 (stereo not shown) [Product 36] | 101% | 24 nM | 87.9% | 200 nM | –
10 | Cc1cc(N2CCC3(CCN(C(C)c4cnc5c(c4)OCCO5)C3)C2)cc(C)n1 (stereo not shown) [Product 37] | 99% | 182 nM | 20.4% | > 1000 nM | –
11 | Cc1cc(N2CCC3(CCN(C(C)c4ccc5c(c4)OCCO5)C3)C2)cc(C)n1 (stereo not shown) [Product 38] | 101% | 30.2 nM | 68.9% | 389 nM | –
12 | CC(=O)Nc1ncc(CN2CCC3(CCN(c4cc(C)ncc4C)C3)C2)s1 (stereo not shown) [Product 39] | 101% | – | 87.3% | 77.6 nM | 7.87
13 | CC(=O)Nc1ncc(CN2CCC3(CCN(c4ncc(C)cc4C)C3)C2)s1 (stereo not shown) [Product 49] | 99.6% | – | 88.8% | 45.7 nM | 8.41
14 | CC(=O)Nc1ncc(CN2CCC3(CCN(c4cc(C)cnc4C)C3)C2)s1 (stereo not shown) [Product 50] | 101% | 25.1 nM | 87.8% | 186 nM | –
15 | CC(=O)Nc1ncc(CN2CCC3(CCN(c4cnc(C)c(C)c4)C3)C2)s1 (stereo not shown) [Product 51] | 100% | 8.51 nM | 93% | 123 nM | –
16 | CC(=O)Nc1ncc(CN2CCC3(CCN(c4ccnc(C)c4)C3)C2)s1 (stereo not shown) [Product 52] | 100% | 16.2 nM | 73.7% | 209 nM | –
17 | CC(=O)Nc1ncc(CN2CCC3(CCN(c4ccc(C)nc4C#N)C3)C2)s1 (stereo not shown) [Product 57] | 101% | 26.3 nM | 56.1% | 794 nM | –
18 | COc1cc(N2CCC3(CCN(Cc4cnc(NC(C)=O)s4)C3)C2)cc(C)n1 (stereo not shown) [Product 58] | 102% | 5.89 nM | 86.3% | 56.2 nM | –
19 | CCOc1cc(N2CCC3(CCN(Cc4cnc(NC(C)=O)s4)C3)C2)cc(C)n1 (stereo not shown) [Product 59] | 100% | 3.63 nM | 84.4% | 39.8 nM | –
20 | CC(=O)Nc1ncc(CN2CCC3(CCN(c4c(C)cncc4C)C3)C2)s1 (stereo not shown) [Product 60] | 100% | 52.5 nM | 88.9% | 148 nM | –
21 | CC(=O)Nc1ncc(CN2CCC3(CCN(c4cc(C)c(C)cn4)C3)C2)s1 (stereo not shown) [Product 61] | 102% | 28.2 nM | 94.6% | 117 nM | –
22 | CC(=O)Nc1ncc(CN2CCC3(CCN(c4cc(C(F)(F)F)cc(C)n4)C3)C2)s1 (stereo not shown) [Product 62] | 100% | 42.7 nM | 22.2% | > 1000 nM | –
23 | COc1cc(N2CCC3(CCN(Cc4cnc(NC(C)=O)s4)C3)C2)ccn1 (stereo not shown) [Product 63] | 102% | 6.92 nM | 75.1% | 219 nM | –
24 | CCc1cc(N2CCC3(CCN(Cc4cnc(NC(C)=O)s4)C3)C2)cc(C)n1 (stereo not shown) [Product 64] | 101% | 9.12 nM | 62.6% | 251 nM | –
25 | CC(=O)Nc1ncc(CN2CCC3(CCN(c4ccnc(C(F)(F)F)c4)C3)C2)s1 (stereo not shown) [Product 65] | 101% | 26.3 nM | 56.8% | 724 nM | –
